Laboratory results taken from patent EP1336409B1 (priority 1995, dated 1997).

Test system: mechanical allodynia
Conditions: rat, in vivo

## Met(0)^12-SNX-111 [SNX-279]
  Effective intrathecal doses: 0.1 to 0.3 µg
  apparent order of potency for suppression of allodynia: SNX-111 =SNX-273 > SNX-279
  block of mechanical allodynia: block mechanical allodynia significantly

## [ala^12-SNX-111 [SNX-273]
  Effective intrathecal doses: 0.1 to 0.3 µg
  apparent order of potency for suppression of allodynia: SNX-111 =SNX-273 > SNX-279
  block of mechanical allodynia: block mechanical allodynia significantly
